Experimental data from ChEMBL document CHEMBL5233265, “Recent advances in the design and development of formyl peptide receptor 2 (FPR2/ALX) agonists as pro-resolving agents with diverse therapeutic potential” (Eur J Med Chem, 2021).

Assays:
Type in all cases: cell-based
[1] = target: T1, fMet-Leu-Phe receptor (Homo sapiens) (UniProt P21462); assay: Agonist activity at FPR1 (unknown origin) expressed in CHO/Galpha16 cells assessed as maximal calcium flux at 0.61 to 10000 nM by FLIPR assay relative to control; conditions: dose 0.61-10000 nM
T1 sequence (whole entry): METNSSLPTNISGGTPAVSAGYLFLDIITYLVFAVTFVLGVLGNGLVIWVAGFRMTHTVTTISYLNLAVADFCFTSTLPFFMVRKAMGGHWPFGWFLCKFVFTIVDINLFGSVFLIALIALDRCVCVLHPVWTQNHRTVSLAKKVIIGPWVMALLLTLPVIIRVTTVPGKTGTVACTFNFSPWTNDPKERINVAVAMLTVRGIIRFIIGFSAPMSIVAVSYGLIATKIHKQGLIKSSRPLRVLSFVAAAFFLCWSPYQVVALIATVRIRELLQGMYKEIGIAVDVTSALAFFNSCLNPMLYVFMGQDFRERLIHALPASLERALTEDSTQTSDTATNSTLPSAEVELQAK

[2] = target: T2, N-formyl peptide receptor 2 (Homo sapiens, UniProt P25090); assay: Agonist activity at human FPR2 expressed in CHO cells assessed as cAMP level incubated for 1.5 hr by HTRF assay
T2 sequence (P25090 whole entry): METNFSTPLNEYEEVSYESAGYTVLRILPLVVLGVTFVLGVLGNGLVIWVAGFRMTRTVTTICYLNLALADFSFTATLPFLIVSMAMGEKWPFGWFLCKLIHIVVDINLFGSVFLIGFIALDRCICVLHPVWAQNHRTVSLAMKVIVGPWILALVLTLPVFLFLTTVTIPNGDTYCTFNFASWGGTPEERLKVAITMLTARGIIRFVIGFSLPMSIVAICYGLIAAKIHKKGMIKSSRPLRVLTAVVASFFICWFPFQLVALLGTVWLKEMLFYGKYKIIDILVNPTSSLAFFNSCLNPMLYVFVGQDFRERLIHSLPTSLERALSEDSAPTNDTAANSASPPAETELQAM

fMet-Leu-Phe receptor [3] = target: T3, fMet-Leu-Phe receptor (Homo sapiens, UniProt P21462); assay: Agonist activity at human FPR1 expressed in CHO cells assessed as cAMP level incubated for 1.5 hr by HTRF assay; conditions: cho
T3 sequence (P21462 whole entry): T1 sequence (whole entry)

fMet-Leu-Phe receptor [4] = target: T3, fMet-Leu-Phe receptor; assay: Agonist activity at human FPR1 expressed in CHO cells assessed as increase in calcium flux incubated for 50 mins by FLIPR calcium 5 dye based fluorescence assay
[5] = target: T2, N-formyl peptide receptor 2; assay: Agonist activity at human FPR2 expressed in CHO cells assessed as increase in calcium flux incubated for 50 mins by FLIPR calcium 5 dye based fluorescence assay
[6] = target: T4, N-formyl peptide receptor 2 (Homo sapiens) (UniProt P25090); assay: Agonist activity at FPR2 (unknown origin) expressed in CHO/Galpha16 cells assessed as maximal calcium flux at 0.61 to 10000 nM by FLIPR assay relative to control; conditions: dose 0.61-10000 nM
T4 sequence (whole entry): T2 sequence (P25090 whole entry)

Homo sapiens = species on record: Homo sapiens; assay: Selectivity index, ratio of EC50 for agonist activity at FPR2 (unknown origin) expressed in CHO/Galpha16 cells to EC50 for FPR1 (unknown origin) expressed in CHO/Galpha16 cells
fMet-Leu-Phe receptor [7] = target: T3, fMet-Leu-Phe receptor; assay: Agonist activity at human FPR1 transfected in HL-60 cells assessed as increase in intracellular calcium flux incubated for 30 mins by Fluo-4 AM dye based fluorometer analysis; conditions: hl-60
[8] = target: T2, N-formyl peptide receptor 2; assay: Agonist activity at human FPR2 transfected in HL-60 cells assessed as increase in intracellular calcium flux incubated for 30 mins by Fluo-4 AM dye based fluorometer analysis
[9] = target: T4, N-formyl peptide receptor 2 (Homo sapiens); assay: Agonist activity at human FPR2 transfected in HL-60 cells assessed as maximal intracellular calcium flux incubated for 30 mins by Fluo-4 AM dye based fluorometer analysis relative to control; conditions: filed as agonist
[10] = target: T2, N-formyl peptide receptor 2; assay: Agonist activity at FPR2 (unknown origin) expressed in CHO/Galpha16 cells assessed as increase in calcium flux by FLIPR assay
fMet-Leu-Phe receptor [11] = target: T3, fMet-Leu-Phe receptor; assay: Agonist activity at FPR1 (unknown origin) expressed in CHO/Galpha16 cells assessed as increase in calcium flux by FLIPR assay

SMILES: CC(C)C(C(=O)O)C(C)NC(=O)Nc1ccc(Br)cc1 (stereo in doubt; 21) [listing 1 of 2 here]
- Emax [1]: 93%

SMILES: COc1cc(F)c([C@@H]2CNC(=O)[C@H]2NC(=O)NC2(c3cccc(C)n3)CC2)c(F)c1
- EC50 [2]: < 10 nM
- EC50 (fMet-Leu-Phe receptor [3]): Not Active

SMILES: COc1ccc([C@H]2CCN(Cc3cccnc3)C(=O)[C@@H]2NC(=O)Nc2ccc(F)cc2)cc1 (relative stereo)
- EC50 (fMet-Leu-Phe receptor [4]): 1 nM
- EC50 [5]: 1 nM

SMILES: CS(=O)(=O)Nc1ccccc1-c1ccc(N2CCC[C@@H](NC(=O)Nc3ccc(C(F)(F)F)nc3)C2=O)cc1
- EC50 [2]: < 5 nM
- EC50 (fMet-Leu-Phe receptor [3]): Not Active

SMILES: NC(=O)c1ccccc1-c1ccc(N2CCC[C@H](NC(=O)Nc3ccc(C(F)(F)F)cc3)C2=O)cc1
- EC50 [2]: 40 nM

SMILES: Cc1cccc(C2(NC(=O)N[C@@H]3C(=O)NC[C@H]3c3c(F)cc(Cl)cc3F)CC2)n1
- EC50 [2]: 100 nM
- EC50 (fMet-Leu-Phe receptor [3]): Not Active

SMILES: O=C(Nc1ccc(C(F)(F)F)cc1)N[C@@H]1CCCN(c2ccc(-c3ccccc3C(=O)O)cc2)C1=O
- EC50 [2]: 5 nM

SMILES: CC(C)C(C(=O)O)C(C)NC(=O)Nc1ccc(Br)cc1 (stereo in doubt; 18) [listing 1 of 2 here]
- Emax [6]: 89%
- Emax [1]: 94%
- Ratio EC50 (Homo sapiens): 17

SMILES: COc1cc(F)c([C@H]2CCN(CCC(F)F)C[C@@H]2NC(=O)Nc2ccc(Cl)cc2)c(F)c1 (relative stereo; form 1)
- EC50 (fMet-Leu-Phe receptor [4]): 1 nM
- EC50 [5]: 1 nM

SMILES: COc1ccc([C@H]2CCN(Cc3ccccn3)C(=O)[C@@H]2NC(=O)Nc2ccc(F)cc2)cc1 (relative stereo)
- EC50 (fMet-Leu-Phe receptor [4]): 1 nM
- EC50 [5]: < 1 nM

SMILES: O=C(Nc1ccc(C(F)(F)F)cc1)N[C@H]1CCCN(c2ccc(-c3ccccc3C(=O)O)cc2)C1=O
- EC50 [2]: 40 nM

SMILES: N#Cc1ccc(C[C@@H](NC(=O)Nc2ccc(O)cc2)C(=O)NCC2(c3ccccc3)CC2)cc1
- EC50 (fMet-Leu-Phe receptor [7]): Not Active
- EC50 ([8]; hl-60): Not Active

SMILES: O=C(Nc1ccc(C(F)(F)F)cc1)N[C@H]1CCCN(c2ccc(-c3ccccc3F)cc2)C1=O
- EC50 [2]: 40 nM

SMILES: COc1ccc(NC(=O)N[C@H](Cc2ccc(C#N)cc2)C(=O)NCC2(c3cccc(O)c3)CC2)cc1
- EC50 (fMet-Leu-Phe receptor [7]): Not Active
- EC50 ([8]; read-out: EC50): 7000 nM
- Emax [9]: 70%

SMILES: CC(C)C[C@H](NC(=O)CCNC(=O)Nc1ccc(Br)cc1)C(=O)O
- Emax [6]: 81%
- Emax [1]: 99%
- Ratio EC50 (Homo sapiens): 74

SMILES: CC(C)C(C(=O)O)C(C)NC(=O)Nc1ccc(Br)cc1 (stereo in doubt; 21) [listing 2 of 2 here]
- EC50 [10]: 25 nM
- EC50 (fMet-Leu-Phe receptor [11]): 1.7 nM

SMILES: CC(=O)N1CCN(c2ccc(N3CCC[C@@H](NC(=O)Nc4ccc(C(F)(F)F)cc4)C3=O)cc2)CC1
- EC50 [2]: 100 nM

SMILES: O=C(CNC(=O)Nc1ccc(Br)cc1)N[C@@H](Cc1ccccc1)C(=O)O
- Emax [6]: 197%
- Emax [1]: 97%
- Ratio EC50 (Homo sapiens): 24

SMILES: COc1ccc([C@H]2CCN(c3ccnnc3)C[C@@H]2NC(=O)Nc2ccc(Cl)cc2)cc1 (relative stereo)
- EC50 (fMet-Leu-Phe receptor [4]): 1 nM
- EC50 [5]: 1 nM

SMILES: CC(C)C(C(=O)O)C(C)NC(=O)Nc1ccc(Br)cc1 (stereo in doubt; 18) [listing 2 of 2 here]
- EC50 [10]: 855 nM
- EC50 (fMet-Leu-Phe receptor [11]): 51 nM

SMILES: COc1cc(F)c([C@@H]2CN(CC3CC3)C(=O)[C@H]2NC(=O)NC2(c3cccc(C)n3)CC2)c(F)c1
- EC50 [2]: < 10 nM
- EC50 (fMet-Leu-Phe receptor [3]): Not Active

SMILES: CC(C)C(C(=O)O)C(C)NC(=O)Nc1ccc(Br)cc1 (stereo in doubt; 20) [listing 1 of 2 here]
- EC50 [10]: 9940 nM
- EC50 (fMet-Leu-Phe receptor [11]): 98 nM

SMILES: CP(C)(=O)c1ccccc1-c1ccc(N2CC[C@@H](NC(=O)Nc3ccc(Cl)cc3)C2=O)c(F)c1F
- EC50 [2]: 25 nM

SMILES: O=C(Nc1ccc(C(F)(F)F)cc1)NC1CCCN(c2ccc(-c3ccccc3F)cc2)C1=O (racemic)
- EC50 [2]: < 5 nM

SMILES: COc1ccc([C@H]2CCNC(=O)[C@@H]2NC(=O)Nc2ccc(Cl)cc2)cc1
- EC50 [5]: < 1 nM

SMILES: COc1cc(F)c([C@@H]2CNC(=O)[C@H]2Nc2nnc(-c3ccc(Cl)cc3)s2)c(F)c1
- EC50 [2]: < 40 nM
- EC50 (fMet-Leu-Phe receptor [3]): Not Active

SMILES: CC(C)C(C(=O)O)C(C)NC(=O)Nc1ccc(Br)cc1 (stereo in doubt; 20) [listing 2 of 2 here]
- Emax [6]: 75%
- Emax [1]: 91%
- Ratio EC50 (Homo sapiens): 101
